From US11865157B2, “Compositions and methods of targeting cancer stem cells” (University of Houston System, priority 2016, dated 2024)
Numbered stars: 1 amine (or outer) side, 2 acyl side, 3 side chain; on linkers, the order of the positions; unused ones are H or OH. Square brackets hold non-standard residues; d marks the D form. Peptide text beside a SMILES is read from it. ξ: configuration not given here. Gly(N-piperonyl) = O=C(O)CNCc1ccc2c(c1)OCO2; X1 = CC(c1ccccc1)N(CC(=O)[*:2])[*:1]; Nlys = NCCCCNCC(=O)O; ξK = NCCCCC(N)C(=O)O; ξM = CSCCC(N)C(=O)O; Nme = COCCNCC(=O)O

How the values were obtained:
plectin = biological target: T1, plectin (Homo sapiens, UniProt Q15149); assay: Magnetic-bead binding assay with plectin antibody competition or plectin siRNA knockdown
T1 construct: endogenous in cells; host or cells: H358, H1693, H1975, H1993 cells
T1 sequence (Q15149 whole entry): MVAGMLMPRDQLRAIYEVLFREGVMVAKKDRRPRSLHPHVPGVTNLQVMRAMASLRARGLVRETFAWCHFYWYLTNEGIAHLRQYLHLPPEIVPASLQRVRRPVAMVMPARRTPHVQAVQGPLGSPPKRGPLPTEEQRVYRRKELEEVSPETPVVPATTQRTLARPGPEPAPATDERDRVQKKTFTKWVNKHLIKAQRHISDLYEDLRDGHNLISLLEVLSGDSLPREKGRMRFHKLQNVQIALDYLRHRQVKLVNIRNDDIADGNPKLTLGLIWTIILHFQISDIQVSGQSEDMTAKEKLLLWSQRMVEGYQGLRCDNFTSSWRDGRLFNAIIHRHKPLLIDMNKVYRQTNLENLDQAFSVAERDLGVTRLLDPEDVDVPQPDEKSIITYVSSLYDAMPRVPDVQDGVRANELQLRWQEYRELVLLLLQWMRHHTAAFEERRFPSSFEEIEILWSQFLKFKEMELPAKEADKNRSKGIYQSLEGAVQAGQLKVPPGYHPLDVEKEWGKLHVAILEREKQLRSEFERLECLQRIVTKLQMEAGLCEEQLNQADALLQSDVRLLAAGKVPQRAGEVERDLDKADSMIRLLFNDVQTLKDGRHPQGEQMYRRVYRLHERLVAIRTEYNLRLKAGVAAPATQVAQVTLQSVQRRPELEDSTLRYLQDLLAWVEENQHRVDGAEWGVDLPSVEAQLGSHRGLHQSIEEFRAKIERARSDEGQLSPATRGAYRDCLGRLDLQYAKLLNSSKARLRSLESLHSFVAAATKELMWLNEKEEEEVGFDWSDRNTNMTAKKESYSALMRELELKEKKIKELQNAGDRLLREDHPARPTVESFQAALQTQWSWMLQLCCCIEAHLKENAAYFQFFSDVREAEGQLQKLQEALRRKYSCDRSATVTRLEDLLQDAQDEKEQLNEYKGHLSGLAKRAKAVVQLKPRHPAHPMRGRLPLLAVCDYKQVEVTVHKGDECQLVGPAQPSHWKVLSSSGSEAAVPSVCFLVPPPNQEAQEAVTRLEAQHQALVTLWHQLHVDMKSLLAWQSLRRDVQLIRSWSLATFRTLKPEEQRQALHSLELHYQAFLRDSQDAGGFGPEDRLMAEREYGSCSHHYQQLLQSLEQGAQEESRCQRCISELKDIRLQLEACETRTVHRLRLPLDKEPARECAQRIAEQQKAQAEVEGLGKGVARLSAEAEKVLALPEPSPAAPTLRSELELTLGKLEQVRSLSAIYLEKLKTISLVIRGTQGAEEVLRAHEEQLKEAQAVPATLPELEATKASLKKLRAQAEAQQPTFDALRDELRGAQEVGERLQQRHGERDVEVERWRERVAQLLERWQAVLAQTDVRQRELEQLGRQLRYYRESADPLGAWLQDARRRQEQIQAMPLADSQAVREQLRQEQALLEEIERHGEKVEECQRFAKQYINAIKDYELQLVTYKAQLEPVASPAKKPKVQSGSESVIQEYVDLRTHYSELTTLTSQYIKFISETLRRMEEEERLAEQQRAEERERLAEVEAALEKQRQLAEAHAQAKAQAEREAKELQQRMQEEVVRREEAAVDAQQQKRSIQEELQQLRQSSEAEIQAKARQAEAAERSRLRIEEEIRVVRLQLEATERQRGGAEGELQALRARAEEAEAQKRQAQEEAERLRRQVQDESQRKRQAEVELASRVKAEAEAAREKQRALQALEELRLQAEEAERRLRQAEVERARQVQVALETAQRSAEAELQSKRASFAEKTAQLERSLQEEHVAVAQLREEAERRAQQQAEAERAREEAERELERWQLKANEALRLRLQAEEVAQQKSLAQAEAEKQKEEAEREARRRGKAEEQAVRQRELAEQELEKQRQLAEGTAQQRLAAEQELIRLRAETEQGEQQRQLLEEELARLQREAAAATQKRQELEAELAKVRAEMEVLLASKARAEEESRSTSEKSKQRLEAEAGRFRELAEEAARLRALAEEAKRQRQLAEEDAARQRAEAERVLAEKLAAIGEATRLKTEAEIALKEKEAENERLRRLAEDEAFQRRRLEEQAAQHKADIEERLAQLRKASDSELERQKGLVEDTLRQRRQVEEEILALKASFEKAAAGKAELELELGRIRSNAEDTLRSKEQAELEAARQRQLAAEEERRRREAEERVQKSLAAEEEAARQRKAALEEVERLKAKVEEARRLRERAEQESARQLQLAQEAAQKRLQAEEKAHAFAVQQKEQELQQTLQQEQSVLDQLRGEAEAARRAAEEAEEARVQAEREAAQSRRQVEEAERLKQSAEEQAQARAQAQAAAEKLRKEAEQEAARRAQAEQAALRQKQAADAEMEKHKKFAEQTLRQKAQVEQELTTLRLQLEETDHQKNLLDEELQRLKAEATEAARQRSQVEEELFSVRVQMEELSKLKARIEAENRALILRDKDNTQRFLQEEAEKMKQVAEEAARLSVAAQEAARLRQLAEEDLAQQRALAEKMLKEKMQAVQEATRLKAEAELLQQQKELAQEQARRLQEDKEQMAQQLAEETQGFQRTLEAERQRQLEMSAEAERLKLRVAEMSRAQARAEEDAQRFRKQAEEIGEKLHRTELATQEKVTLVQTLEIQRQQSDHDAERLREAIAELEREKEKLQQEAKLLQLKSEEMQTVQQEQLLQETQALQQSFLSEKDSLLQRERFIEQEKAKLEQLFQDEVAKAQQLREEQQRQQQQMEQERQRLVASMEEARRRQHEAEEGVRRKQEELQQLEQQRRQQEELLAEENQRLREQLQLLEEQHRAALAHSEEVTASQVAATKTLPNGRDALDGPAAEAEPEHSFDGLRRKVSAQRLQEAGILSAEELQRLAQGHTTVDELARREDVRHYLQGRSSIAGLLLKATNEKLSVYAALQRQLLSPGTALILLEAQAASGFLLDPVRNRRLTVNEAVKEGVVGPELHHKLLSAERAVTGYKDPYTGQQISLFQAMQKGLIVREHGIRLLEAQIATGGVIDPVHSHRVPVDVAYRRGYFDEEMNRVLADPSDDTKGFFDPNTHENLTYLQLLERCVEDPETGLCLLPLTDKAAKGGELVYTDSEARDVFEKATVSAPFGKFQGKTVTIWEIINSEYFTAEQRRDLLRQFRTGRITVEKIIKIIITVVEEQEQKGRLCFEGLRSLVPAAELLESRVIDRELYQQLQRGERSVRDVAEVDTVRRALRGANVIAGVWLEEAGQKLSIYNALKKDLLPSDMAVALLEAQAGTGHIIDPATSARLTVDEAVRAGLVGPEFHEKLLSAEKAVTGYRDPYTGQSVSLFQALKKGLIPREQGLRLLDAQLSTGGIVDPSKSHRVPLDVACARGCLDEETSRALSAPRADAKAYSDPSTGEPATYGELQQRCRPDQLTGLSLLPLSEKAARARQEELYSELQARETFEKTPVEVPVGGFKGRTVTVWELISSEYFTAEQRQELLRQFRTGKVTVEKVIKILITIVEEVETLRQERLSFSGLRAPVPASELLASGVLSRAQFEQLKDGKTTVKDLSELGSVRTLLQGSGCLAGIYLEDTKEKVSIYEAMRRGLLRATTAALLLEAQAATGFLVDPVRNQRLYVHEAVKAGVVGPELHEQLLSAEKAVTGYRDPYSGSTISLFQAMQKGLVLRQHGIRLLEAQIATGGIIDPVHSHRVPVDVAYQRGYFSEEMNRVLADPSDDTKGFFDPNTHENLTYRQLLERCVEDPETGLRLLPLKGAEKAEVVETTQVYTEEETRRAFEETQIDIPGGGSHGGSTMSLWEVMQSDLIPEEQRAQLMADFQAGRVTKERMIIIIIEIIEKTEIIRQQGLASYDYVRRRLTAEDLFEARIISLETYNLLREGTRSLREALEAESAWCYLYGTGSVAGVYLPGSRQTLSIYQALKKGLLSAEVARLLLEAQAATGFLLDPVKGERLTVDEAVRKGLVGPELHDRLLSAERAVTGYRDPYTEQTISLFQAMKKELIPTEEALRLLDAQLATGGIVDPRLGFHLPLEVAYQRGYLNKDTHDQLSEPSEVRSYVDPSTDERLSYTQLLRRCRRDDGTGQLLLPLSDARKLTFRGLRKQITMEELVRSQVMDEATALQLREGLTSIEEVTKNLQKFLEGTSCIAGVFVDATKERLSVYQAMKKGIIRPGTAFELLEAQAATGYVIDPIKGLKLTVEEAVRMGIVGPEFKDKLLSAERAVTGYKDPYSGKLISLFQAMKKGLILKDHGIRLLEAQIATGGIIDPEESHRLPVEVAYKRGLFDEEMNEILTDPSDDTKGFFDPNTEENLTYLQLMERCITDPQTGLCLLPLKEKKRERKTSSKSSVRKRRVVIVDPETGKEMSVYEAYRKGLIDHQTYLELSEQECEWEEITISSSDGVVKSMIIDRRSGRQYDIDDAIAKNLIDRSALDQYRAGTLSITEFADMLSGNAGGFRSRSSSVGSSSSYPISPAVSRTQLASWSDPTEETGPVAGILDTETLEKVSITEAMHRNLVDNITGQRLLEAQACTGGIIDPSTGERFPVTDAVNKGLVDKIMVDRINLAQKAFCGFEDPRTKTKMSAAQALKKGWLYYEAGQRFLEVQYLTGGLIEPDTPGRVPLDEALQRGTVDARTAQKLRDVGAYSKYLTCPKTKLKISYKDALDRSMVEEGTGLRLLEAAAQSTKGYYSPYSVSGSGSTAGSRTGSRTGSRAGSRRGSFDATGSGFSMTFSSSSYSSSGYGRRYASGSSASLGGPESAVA
Procedure: Unsorted H358 cells were plated on a 6-well plate and grown to 80% confluence. For each well, 9 μL of Lipofectamine RNAiMAX (Thermo Fisher) was mixed with 3 μL of 10 μM siRNA, either silencer select s10644 plectin or silencer select negative control 1 (Thermo Fisher), in serum-free RPMI and incubated for 5 minutes. The mixture was then added to the well and incubated for 1 to 4 days before testing. Magnetic binding assays were performed on harvested cells as described above for binding evaluation.
Plectin expression was directed tested on PCS2-bound cells from H358, HCC4017, H460, H1299, H2073, H1693, H1993, H1975 cells by RT-QPCR (FIG. 22A). […] To determine if PCS2 and the plectin antibody compete for binding, the magnetic-bead binding assay was repeated in the presence of the plectin antibody. […] Since previous reports have shown cells to be sufficiently stable for further assays with plectin knock-down, plectin knockdown was conducted in H358, H1693, H1975 and H1993 cells using siRNA using the magnetic-bead binding assay described above. […] From these observations, it was concluded that plectin is the cell-surface marker that PCS2 is targeting.

ALDH+ H358 CSCs = assay: On-bead binding of sorted ALDH+ and ALDH− H358 cells to PCS2-carrying beads; format: cell-based
Procedure: On-bead binding assay: 50 mg of peptoid-carrying tentagel beads or 1.3×10^6 of peptoid-carrying magnetic beads were equilibrated in 2 mL RPMI containing 5% FBS and 3% BSA (Sigma) for 1 hour by shaking. The beads can then be equilibrated with 5×10^6 of each cancer cell type listed above in 2 mL RPMI containing 5% FBS and 1% BSA at room temperature for 15-60 minutes for binding. The cell-bound beads are then pulled down with a magnet and washed with RPMI to cleanly harvest bound cells. Unbound cells were collected separately for further confirmations.
To confirm the binding specificity of PCS2 to CSCs, sorted ALDH+ H358 CSCs (red stained) and ALDH− H358 cells (green stained) were exposed to PCS2-carrying beads. […] The same assay was repeated after allowing these CSC population to grow for 2 weeks, where by then the CSC percentage in the ALDH+ sorted population became low, the number of cells bound was very low (FIG. 4E), indicating PCS2 recognizes a unique target specific for CSCs, but not other cancer cells.

H358 and HCC4017 cells = assay: ALDEFluor staining of PCS2-bound and PCS2-unbound fractions; format: cell-based
Procedure: To confirm that the peptoid-bound fraction was CSCs, a subset of PCS2-bound and PCS2-unbound fractions from H358 cells were generated and stained with the ALDEFLuor kit, which produces green fluorescence when the ALDH protein is active in a cell, and DAPI, and then analyzed them under a fluorescence microscope. […] An equal number of PCS2-bead sorted cells from the H358 and HCC4017 cell lines were also treated with the Aldefluor kit and their relative fluorescence was evaluated using a spectrophotometer (FIG. 7B & C).

## COCCNCC(=O)N(CCCCN)CC(=O)N(CC(=O)N(CC(=O)N(CCCCN)CC(=O)NC(CCCCN)C(=O)N[C@H](CCCCN)C(=O)NC(CCSC)C(N)=O)C(C)c1ccccc1)Cc1ccc2c(c1)OCO2 (stereo partly drawn) [PCS2] (H-[Nme][Nlys][Gly(N-piperonyl)][X1][Nlys][ξK][dK][ξM]-NH2)
plectin; H358, H1693, H1975 and H1993 cells
  bound cells after plectin siRNA knockdown vs control siRNA: dramatic decrease
plectin; all cell lines tested
  cells bound to PCS2-magnetic-beads in the presence of plectin antibody: fewer cells bound
ALDH+ H358 CSCs; ALDH+ sorted population after 2 weeks of growth
  number of cells bound to PCS2-beads: very low
ALDH+ H358 CSCs; freshly sorted cells
  binding of PCS2-beads to sorted ALDH+ (red) vs ALDH− (green) H358 cells: only bound significantly to the red CSCs
H358 and HCC4017 cells; H358, fluorescence microscope, vs unbound or untreated fractions
  ALDEFluor green fluorescence of PCS2-bound fraction: significantly stronger green fluorescence
H358 and HCC4017 cells; H358 and HCC4017, spectrophotometer
  relative ALDEFluor fluorescence of PCS2-bead sorted cells: fluorescence was higher in bound cells
